Source: ChEMBL document CHEMBL4346735, “Discovery and pharmacological evaluation of indole derivatives as potent and selective RORγt inverse agonist for multiple autoimmune conditions” (Bioorg Med Chem Lett, 2019)
Activity calls are given as the source filed them. The rule behind the calls is not given here.

Legend:
[1] = tested on: Mus musculus; assay: Protection against imiquimod-induced skin inflammation in BALB/c mouse psoriasis model assessed as decrease in ear thickness administered topically at 25 mg qd treated for 1 hr before IMQ application measured at day 5; assay type: functional, organism-based
[2] = tested on: Mus musculus; assay: Protection against imiquimod-induced skin inflammation in BALB/c mouse psoriasis model assessed as decrease in scaling administered topically at 25 mg qd treated for 1 hr before IMQ application measured at day 5; assay type: functional, organism-based
[3] = target: T1, Nuclear receptor ROR-gamma (Homo sapiens) (UniProt P51449); assay: Transactivation of recombinant GAL4-DBD fused RORgammat LBD (unknown origin) expressed in HEK293T cells at 10 uM incubated for 18 to 24 hrs by dual-Glo luciferase assay relative to control; assay type: cell-based
T1 sequence (whole entry): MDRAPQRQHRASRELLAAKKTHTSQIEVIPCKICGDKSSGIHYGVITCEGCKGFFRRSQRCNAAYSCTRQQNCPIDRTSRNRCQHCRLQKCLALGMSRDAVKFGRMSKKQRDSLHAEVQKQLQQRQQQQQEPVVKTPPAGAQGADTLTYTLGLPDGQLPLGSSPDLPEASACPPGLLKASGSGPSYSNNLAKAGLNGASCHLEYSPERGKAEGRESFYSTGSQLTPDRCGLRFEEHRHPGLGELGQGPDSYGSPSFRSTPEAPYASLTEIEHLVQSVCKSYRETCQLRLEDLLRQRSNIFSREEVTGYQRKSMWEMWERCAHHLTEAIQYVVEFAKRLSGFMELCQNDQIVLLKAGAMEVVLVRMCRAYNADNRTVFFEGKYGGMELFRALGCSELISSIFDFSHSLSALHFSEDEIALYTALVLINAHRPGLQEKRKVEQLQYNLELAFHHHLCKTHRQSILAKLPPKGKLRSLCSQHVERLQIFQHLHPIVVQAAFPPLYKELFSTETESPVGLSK

[4] = Metabolic stability in mouse liver microsomes assessed as parent compound remaining at 1 uM preincubated for 5 mins followed by NADPH addition after 30 mins by LC-MS/MS analysis; assay type: ADME, Microsome; conditions: read-out: Stability
[5] = Metabolic stability in rat liver microsomes assessed as parent compound remaining at 1 uM preincubated for 5 mins followed by NADPH addition after 30 mins by LC-MS/MS analysis; assay type: ADME, Microsome; conditions: read-out: Stability
[6] = Metabolic stability in human liver microsomes assessed as parent compound remaining at 1 uM preincubated for 5 mins followed by NADPH addition after 30 mins by LC-MS/MS analysis; assay type: ADME, Microsome; conditions: read-out: Stability
[7] = AUC (0 to 24 hrs) in Balb/c mouse at 3 mg/kg, iv; assay type: ADME, organism-based; design: time < 24 hr, dose 3 mg/kg, route intravenous; conditions: in vivo
[8] = AUC (0 to infinity) in Balb/c mouse at 3 mg/kg, iv; assay type: ADME, organism-based; design: dose 3 mg/kg, route intravenous, time infinity; conditions: in vivo
[9] = Volume of distribution at steady state in Balb/c mouse at 3 mg/kg, iv; assay type: ADME, organism-based; conditions: in vivo, read-out: Vdss
[10] = Clearance in Balb/c mouse at 3 mg/kg, iv; assay type: ADME, organism-based; conditions: in vivo
[11] = Half life in Balb/c mouse at 3 mg/kg, iv; assay type: ADME, organism-based; conditions: in vivo
[12] = Cmax in Balb/c mouse at 10 mg/kg, po; assay type: ADME, organism-based; design: dose 10 mg/kg, route oral; conditions: in vivo
[13] = Tmax in Balb/c mouse at 10 mg/kg, po; assay type: ADME, organism-based; conditions: in vivo
[14] = AUC (0 to 24 hrs) in Balb/c mouse at 10 mg/kg, po; assay type: ADME, organism-based; design: time < 24 hr, dose 10 mg/kg, route oral; conditions: in vivo
[15] = AUC (0 to infinity) in Balb/c mouse at 10 mg/kg, po; assay type: ADME, organism-based; design: dose 10 mg/kg, time infinity, route oral; conditions: in vivo
[16] = Half life in Balb/c mouse at 10 mg/kg, po; assay type: ADME, organism-based; conditions: in vivo
[17] = Oral bioavailability in Balb/c mouse at 10mg/kg; assay type: ADME, organism-based; conditions: in vivo
[18] = AUC (0 to 24 hrs) in Sprague-Dawley rat at 3 mg/kg, iv administered as single dose measured up to 24 hrs by LC-MS/MS analysis; assay type: ADME, organism-based; design: time < 24 hr, dose 3 mg/kg, route intravenous; conditions: in vivo
[19] = AUC (0 to infinity) in Sprague-Dawley rat at 3 mg/kg, iv administered as single dose measured up to 24 hrs by LC-MS/MS analysis; assay type: ADME, organism-based; design: dose 3 mg/kg, time infinity, route intravenous; conditions: in vivo
[20] = Volume of distribution at steady state in Sprague-Dawley rat at 3 mg/kg, iv administered as single dose measured up to 24 hrs by LC-MS/MS analysis; assay type: ADME, organism-based; conditions: in vivo, read-out: Vdss
[21] = Clearance in Sprague-Dawley rat at 3 mg/kg, iv administered as single dose measured up to 24 hrs by LC-MS/MS analysis; assay type: ADME, organism-based; conditions: in vivo
[22] = Half life in Sprague-Dawley rat at 3 mg/kg, iv administered as single dose measured up to 24 hrs by LC-MS/MS analysis; assay type: ADME, organism-based; conditions: in vivo
[23] = Cmax in Sprague-Dawley rat at 10 mg/kg, po via gavage measured up to 24 hrs by LC-MS/MS analysis; assay type: ADME, organism-based; design: dose 10 mg/kg, route oral; conditions: in vivo
[24] = Tmax in Sprague-Dawley rat at 10 mg/kg, po via gavage measured up to 24 hrs by LC-MS/MS analysis; assay type: ADME, organism-based; conditions: in vivo
[25] = AUC (0 to 24 hrs) in Sprague-Dawley rat at 10 mg/kg, po via gavage measured up to 24 hrs by LC-MS/MS analysis; assay type: ADME, organism-based; design: time < 24 hr, dose 10 mg/kg, route oral; conditions: in vivo
[26] = AUC (0 to infinity) in Sprague-Dawley rat at 10 mg/kg, po via gavage measured up to 24 hrs by LC-MS/MS analysis; assay type: ADME, organism-based; design: dose 10 mg/kg, time infinity, route oral; conditions: in vivo
[27] = Half life in Sprague-Dawley rat at 10 mg/kg, po via gavage measured up to 24 hrs by LC-MS/MS analysis; assay type: ADME, organism-based; conditions: in vivo
[28] = Oral bioavailability in Sprague-Dawley rat at 10mg/kg via gavage measured up to 24 hrs by LC-MS/MS analysis; assay type: ADME, organism-based; conditions: in vivo
[29] = target: T2, Nuclear receptor ROR-gamma (Mus musculus) (UniProt P51450); assay: Transrepression of RORgammat in Balb/c mouse splenocytes assessed as inhibition of anti-CD3/anti-CD28 stimulated IL-17 gene expression at 0.3 uM measured after 24 hrs in presence of anti-CD3/anti-CD28; assay type: cell-based
T2 sequence (whole entry): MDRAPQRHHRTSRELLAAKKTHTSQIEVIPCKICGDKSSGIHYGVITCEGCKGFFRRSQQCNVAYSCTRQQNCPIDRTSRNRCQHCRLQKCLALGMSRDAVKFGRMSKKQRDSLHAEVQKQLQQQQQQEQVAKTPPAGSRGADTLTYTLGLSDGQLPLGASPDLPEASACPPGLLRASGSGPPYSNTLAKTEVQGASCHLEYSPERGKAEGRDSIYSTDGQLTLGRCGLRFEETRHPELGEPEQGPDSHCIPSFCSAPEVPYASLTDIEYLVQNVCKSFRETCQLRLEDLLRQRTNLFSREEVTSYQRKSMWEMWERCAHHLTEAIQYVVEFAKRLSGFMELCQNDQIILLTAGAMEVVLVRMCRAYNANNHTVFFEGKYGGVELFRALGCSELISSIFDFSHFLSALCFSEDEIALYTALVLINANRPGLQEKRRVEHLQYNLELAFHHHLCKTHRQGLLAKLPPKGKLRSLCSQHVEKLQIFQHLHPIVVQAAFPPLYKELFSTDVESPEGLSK

[30] = target: T2, Nuclear receptor ROR-gamma (Mus musculus); assay: Transrepression of RORgammat in Balb/c mouse splenocytes assessed as inhibition of anti-CD3/anti-CD28 stimulated IL-17 gene expression at 3 uM measured after 24 hrs in presence of anti-CD3/anti-CD28; assay type: cell-based
[31] = target: T2, Nuclear receptor ROR-gamma (Mus musculus); assay: Transrepression of RORgammat in Balb/c mouse splenocytes assessed as inhibition of anti-CD3/anti-CD28 stimulated IL-17 gene expression at 30 uM measured after 24 hrs in presence of anti-CD3/anti-CD28; assay type: cell-based
[32] = tested on: Mus musculus; assay: Immunosuppressive activity in MOG (35 to 55 residues)/pertussis toxin-induced experimental allergic encephalomyelitis C57BL/6J mouse model assessed as decrease in ratio of Th17:Th1 at 3 to 30 mg/kg, po bid by intracellular staining method; assay type: functional, organism-based
[33] = organism: Mus musculus; assay: Effect on non-RORgammat-dependent IFNG gene expression in BALB/c mouse splenocytes measured after 24 hrs in presence of anti-CD3/anti-CD28; assay type: functional
[34] = organism: Mus musculus; assay: Effect on non-RORgammat-dependent ll4 gene expression in BALB/c mouse splenocytes measured after 24 hrs in presence of anti-CD3/anti-CD28; assay type: functional
[35] = organism: Mus musculus; assay: Effect on non-RORgammat-dependent TNFA gene expression in BALB/c mouse splenocytes measured after 24 hrs in presence of anti-CD3/anti-CD28; assay type: functional
[36] = organism: Mus musculus; assay: Effect on non-RORgammat-dependent il6 gene expression in BALB/c mouse splenocytes measured after 24 hrs in presence of anti-CD3/anti-CD28; assay type: functional
[37] = tested on: Mus musculus; assay: Immunosuppressive activity in MOG (35 to 55 residues)/pertussis toxin-induced experimental allergic encephalomyelitis C57BL/6J mouse model assessed as delay in disease onset at 3 to 30 mg/kg, po bid; assay type: functional, organism-based
[38] = tested on: Mus musculus; assay: Immunosuppressive activity in MOG (35 to 55 residues)/pertussis toxin-induced experimental allergic encephalomyelitis C57BL/6J mouse model assessed as reduction in disease severity at 3 to 30 mg/kg, po bid measured at days 15-19; assay type: functional, organism-based
[39] = tested on: Mus musculus; assay: Immunosuppressive activity in MOG (35 to 55 residues)/pertussis toxin-induced experimental allergic encephalomyelitis C57BL/6J mouse model assessed as IFN-gamma production of CNS infiltrating CD4+ Th1 cells at 3 to 30 mg/kg, po bid by intracellular staining method; assay type: functional, organism-based

C[C@H]1C[C@H]2[C@@H]3CCC4=CC(=O)C=C[C@]4(C)[C@@]3(F)[C@@H](O)C[C@]2(C)[C@@]1(O)C(=O)CO
Activity [1]: Active | Activity [2]: Active

O=C(O)c1ccc(-n2cc(C(=O)c3c(Cl)cccc3Cl)c3ncccc32)cc1
inhibition [3]: 3% | remaining at 0.5 h, 1 µM [4]: 100% | remaining at 0.5 h, 1 µM [5]: 96% | remaining at 0.5 h, 1 µM [6]: 94%

O=C([O-])c1ccc(-n2cc(C(=O)c3c(Cl)cccc3Cl)c3cccc(F)c32)cc1.[Na+]
AUC(0-t) at 24 h [7]: 4.2 µM·h | AUC(0-inf) [8]: 4.6 µM·h | Vd [9]: 4.3 L/kg | clearance [10]: 25.2 mL/min/kg | half-life [11]: 162 min | Cmax [12]: 7 µM | Tmax [13]: 30 min | AUC(0-t) at 24 h [14]: 12.6 µM·h | AUC(0-inf) [15]: 12.7 µM·h | half-life [16]: 210 min | bioavailability [17]: 91% | AUC(0-t) at 24 h [18]: 3.69 µM·h | AUC(0-inf) [19]: 4.11 µM·h | Vd [20]: 4.32 L/kg | clearance [21]: 28.9 mL/min/kg | half-life [22]: 208 min | Cmax [23]: 3000 nM | Tmax [24]: 30 min | AUC(0-t) at 24 h [25]: 6.7 µM·h | AUC(0-inf) [26]: 7.59 µM·h | half-life [27]: 152 min | bioavailability [28]: 50%

O=C(O)c1ccc(-n2cc(C(=O)c3c(Cl)cccc3Cl)c3cccc(F)c32)cc1
inhibition [29]: 2% | inhibition [30]: 52% | inhibition [31]: 76% | inhibition [32]: Active | Activity [33]: inactive | Activity [34]: inactive | Activity [35]: inactive | Activity [36]: inactive | Activity [37]: Active | Activity [38]: Active | Activity [39]: Active
